Drawing on patent US8623899B2, “Bis-benzimidazole derivatives as hepatitis C virus inhibitors” (Janssen Research & Development Ireland, priority 2009, dated 2014), this text covers EC50 for 24 molecules.

In the test the test system is HCV type 1b replicon in Huh-7 luc/neo (Huh-Luc) cells. Kind of test: HCV replicon assay (Huh-Luc, luciferase readout). The test is classed as cell-based. Particulars: Hepatitis C virus, Huh-7, 72 h, luciferase activity, incubation of three days, read-out: HCV-REP-HUH7LUC_EC50. An excerpt: The compounds of formula (I) were examined for inhibitory activity in the HCV replicon. This cellular assay is based on a bicistronic expression construct, as described by Lohmann et al. (1999) Science vol. 285 pp. 110-113 with modifications described by Krieger et al. (2001) Journal of Virology 75: 4614-4624, in a multi-target screening strategy.
In essence, the method was as follows:
The assay utilized the stably transfected cell line Huh-7 luc/neo (hereafter referred to as Huh-Luc). This cell line harbors an RNA encoding a bicistronic expression construct comprising the wild type NS3-NS5B regions of HCV type 1b translated from an Internal Ribosome Entry Site (IRES) from encephalomyocarditis virus (EMCV), preceded by a reporter portion (FfL-luciferase), and a selectable marker portion (neo^R, neomycine phosphotransferase). The construct is flanked by 5′ and 3′ NTRs (non-translated regions) from HCV type 1b. Continued culture of the replicon cells in the presence of G418 (neo^R) is dependent on the replication of the HCV RNA. The stably transfected replicon cells that express HCV RNA, which replicates autonomously and to high levels, encoding inter alia luciferase, were used for screening the antiviral compounds.
The replicon cells were plated in 384 well plates in the presence of the test and control compounds which were added in various concentrations. Following an incubation of three days, HCV replication was measured by assaying luciferase activity (using standard luciferase assay substrates and reagents and a Perkin Elmer ViewLux™ ultraHTS microplate imager). Replicon cells in the control cultures have high luciferase expression in the absence of any inhibitor. The inhibitory activity of the compound on luciferase activity was monitored on the Huh-Luc cells, enabling a dose-response curve for each test compound. EC50 values were then calculated, which represent the amount of compound required to decrease the level of detected luciferase activity by 50%, or more specifically, to reduce the ability of the genetically linked HCV replicon RNA to replicate.
On the technique in general: In antiviral work, replicon cells carry a viral genome segment that copies itself.
Consider `O=C(c1ccc(F)cc1)N1CCC[C@H]1c1nc2ccc(-c3ccc(-c4ccc5nc([C@@H]6CCCN6C(=O)c6ccc(F)cc6)[nH]c5c4)cc3)cc2[nH]1` [Compound 27], for which the EC50 came out at 240000 pM. On to `CC(C)[C@@H](C(=O)N1CCC[C@H]1c1nc2ccc(-c3ccc(-c4ccc5nc([C@@H]6CCCN6C(=O)[C@H](C(C)C)N(C)C)[nH]c5c4)cc3)cc2[nH]1)N(C)C` [Compound 28], for which the EC50 came to 70000 pM. Take `O=C(CC1CCCCC1)N1CCC[C@H]1c1nc2ccc(-c3ccc(-c4ccc5nc([C@@H]6CCCN6C(=O)CC6CCCCC6)[nH]c5c4)cc3)cc2[nH]1` [Compound 29]: the EC50 turned out to be 550000 pM.

On to `COC(=O)N[C@H](C(=O)N1CCC[C@H]1c1nc2ccc(-c3ccc(-c4ccc5nc([C@@H]6CCCN6C(=O)[C@@H](NC(=O)OC)C(C)C)[nH]c5c4)cc3)cc2[nH]1)C(C)C` [Compound 30], for which the EC50 came to 6 pM. Regarding `O=C(c1cccnc1)N1CCC[C@H]1c1nc2ccc(-c3ccc(-c4ccc5nc([C@@H]6CCCN6C(=O)c6cccnc6)[nH]c5c4)cc3)cc2[nH]1` [Compound 31], the EC50 turned out to be 280000 pM. The value for `COC(=O)N[C@@H](C(=O)N1CCC[C@H]1c1nc2ccc(-c3ccc(-c4ccc5nc([C@@H]6CCCN6C(=O)[C@H](NC(=O)OC)C(C)C)[nH]c5c4)cc3)cc2[nH]1)C(C)C` [Compound 32] was 6900 pM; that for `CC(C)[C@H](O)C(=O)N1CCC[C@H]1c1nc2ccc(-c3ccc(-c4ccc5nc([C@@H]6CCCN6C(=O)[C@@H](O)C(C)C)[nH]c5c4)cc3)cc2[nH]1` [Compound 33] was 110000 pM; that for `O=C([C@H](O)c1ccccc1)N1CCC[C@H]1c1nc2ccc(-c3ccc(-c4ccc5nc([C@@H]6CCCN6C(=O)[C@H](O)c6ccccc6)[nH]c5c4)cc3)cc2[nH]1` [Compound 34] was 3.7 pM. As to `CN(C)[C@@H](C(=O)N1CCC[C@H]1c1nc2ccc(-c3ccc(-c4ccc5nc([C@@H]6CCCN6C(=O)[C@@H](c6ccccc6)N(C)C)[nH]c5c4)cc3)cc2[nH]1)c1ccccc1` [Compound 36], the EC50 was 73 pM. The value for `COC(=O)N[C@H](C(=O)N1CCC[C@H]1c1nc2ccc(-c3ccc(-c4ccc5nc([C@@H]6CCCN6C(=O)[C@@H](NC(=O)OC)C(C)(C)C)[nH]c5c4)cc3)cc2[nH]1)C(C)(C)C` [Compound 37] was 10 pM. For the molecule `CC(C)(C)OC(=O)N[C@@H](C(=O)N1CCC[C@H]1c1nc2ccc(-c3ccc(-c4ccc5nc([C@@H]6CCCN6C(=O)[C@H](NC(=O)OC(C)(C)C)c6ccccc6)[nH]c5c4)cc3)cc2[nH]1)c1ccccc1` [Compound 38], the EC50 turned out to be 14 pM.

`COC(=O)N[C@@H](C(=O)N1CCCC1c1nc2ccc(-c3ccc(-c4ccc5nc([C@@H]6CCCN6C(=O)[C@H](NC(=O)OC)c6ccccc6)[nH]c5c4)cc3)cc2[nH]1)c1ccccc1` (stereo partly drawn) [Compound 39]: the EC50 was 6.7 pM.

Turning to `COC(=O)N[C@H](C(=O)N1CCC[C@H]1c1nc2cc(-c3ccc(-c4ccc5nc([C@@H]6CCCN6C(=O)[C@@H](NC(=O)OC)C6CC6)[nH]c5c4)cc3)ccc2[nH]1)C1CC1` [Compound 40], the EC50 worked out at 14 pM. With `CCOC(=O)N[C@H](C(=O)N1CCC[C@H]1c1nc2ccc(-c3ccc(-c4ccc5nc([C@@H]6CCCN6C(=O)[C@@H](NC(=O)OCC)C(C)C)[nH]c5c4)cc3)cc2[nH]1)C(C)C` [Compound 41] the figure was 17000 pM.

Turning to `CCN(C1CC1)[C@@H](C(=O)N1CCC[C@H]1c1nc2ccc(-c3ccc(-c4ccc5nc([C@@H]6CCCN6C(=O)[C@@H](c6ccccc6)N(CC)C6CC6)[nH]c5c4)cc3)cc2[nH]1)c1ccccc1` [Compound 42], the EC50 turned out to be 63 pM. As for `O=C([C@@H](c1ccccc1)N1CCCC1)N1CCC[C@H]1c1nc2ccc(-c3ccc(-c4ccc5nc([C@@H]6CCCN6C(=O)[C@@H](c6ccccc6)N6CCCC6)[nH]c5c4)cc3)cc2[nH]1` [Compound 45], the EC50 was 51 pM. With `O=C([C@@H](c1ccccc1)N1CCOCC1)N1CCC[C@H]1c1nc2ccc(-c3ccc(-c4ccc5nc([C@@H]6CCCN6C(=O)[C@@H](c6ccccc6)N6CCOCC6)[nH]c5c4)cc3)cc2[nH]1` [Compound 46] the figure was 22 pM; with `O=C([C@H](O)c1ccccc1Cl)N1CCC[C@H]1c1nc2ccc(-c3ccc(-c4ccc5nc([C@@H]6CCCN6C(=O)[C@H](O)c6ccccc6Cl)[nH]c5c4)cc3)cc2[nH]1` [Compound 48], 11 pM; with `O=C([C@H](O)c1cccc(Cl)c1)N1CCC[C@H]1c1nc2ccc(-c3ccc(-c4ccc5nc([C@@H]6CCCN6C(=O)[C@H](O)c6cccc(Cl)c6)[nH]c5c4)cc3)cc2[nH]1` [Compound 49], 27 pM. With `COCC[C@H](NC(=O)OC)C(=O)N1CCC[C@H]1c1nc2ccc(-c3ccc(-c4ccc5nc([C@@H]6CCCN6C(=O)[C@H](CCOC)NC(=O)OC)[nH]c5c4)cc3)cc2[nH]1` [Compound 51] the figure was 12 pM; with `CC(C)OC(=O)N[C@H](C(=O)N1CCC[C@H]1c1nc2ccc(-c3ccc(-c4ccc5nc([C@@H]6CCCN6C(=O)[C@@H](NC(=O)OC(C)C)C(C)C)[nH]c5c4)cc3)cc2[nH]1)C(C)C` [Compound 52], greater than 98000 pM; with `CCC(=O)N[C@H](C(=O)N1CCC[C@H]1c1nc2ccc(-c3ccc(-c4ccc5nc([C@@H]6CCCN6C(=O)[C@@H](NC(=O)CC)C(C)C)[nH]c5c4)cc3)cc2[nH]1)C(C)C` [Compound 53], 4000 pM. As for `CC(C)[C@@H](C(=O)N1CCC[C@H]1c1nc2ccc(-c3ccc(-c4ccc5nc([C@@H]6CCCN6C(=O)[C@H](C(C)C)N6CCCNC6=O)[nH]c5c4)cc3)cc2[nH]1)N1CCCNC1=O` [Compound 54], the EC50 was found to be 65 pM. Consider `COC(=O)N[C@@H](CC(C)C)C(=O)N1CCC[C@H]1c1nc2ccc(-c3ccc(-c4ccc5nc([C@@H]6CCCN6C(=O)[C@H](CC(C)C)NC(=O)OC)[nH]c5c4)cc3)cc2[nH]1` [Compound 56], for which the EC50 turned out to be 12 pM.
